Experiments:
[1] = target: T1, hα7-wt nAChR-expressing GH4Cl cells (Homo sapiens, UniProt P36544); assay: Patch-clamp current recording (whole-cell), potentiation of choline 1 mM response, PAM type; type: cell-based; parameters: key to Pam type: Type 0 compounds minimally enhance the effect size of the current elicited by 1 mM choline.; Type 1 compounds enhance the effect size of the current elicited by 1 mM choline but minimally alter the kinetics of the receptor.; Type 2 compounds enhance the effect size of the current elicited by 1 mM choline while reducing the rate and/or the extent of desensitization.; Type 3 compounds enhance the effect size of the current elicited by 1 mM choline. When tested at higher concentrations up to 10 μM they completely inhibit desensitization, in particular a 1 mM choline application of 250 milliseconds.; Type 4 compounds allow for an initial desensitization of the receptor followed by a re-opening of the receptor during agonist application; details: for EC50: according to Ex. D.2, "<5" = no top plateau reached at maximal concentration, read-out: Potency (pEC50) (converted); for Pam type: patch-clamp current recording, 1 mM choline
T1 construct: expressed in transfected cells
Description: The compounds of the present invention are classified as type 1-4, based on qualitative kinetic properties, as determined by whole-cell voltage-clamp recordings. This classification is based on the effect of an α7 PAM compound, as described hereinbefore, on the signal elicited by an agonist application. In particular, said agonist is choline at a concentration of 1 mM. In a preferred experimental setting, said α7 PAM compound and choline are simultaneously applied to the cell, as described hereinafter. Desensitization is defined as the closure of the receptor upon activation during the application of the agonist in whole-cell voltage-clamp electrophysiology measurements seen as the reduction of the […] current after initial activation by the agonist.
The definition of the PAM types 1-4 is described hereinafter: • Type 0 compounds minimally enhance the effect size of the current elicited by 1 mM choline. • Type 1 compounds enhance the effect size of the current elicited by 1 mM choline but minimally alter the kinetics of the receptor. In particular, the rate and the extent of desensitization, elicited by the agonist, is not affected. The compound-modulated response to 1 mM choline, therefore, is a close to linear scaling of the 1 mM choline response in absence of the α7 PAM compound. • Type 2 compounds enhance the effect size of the current elicited by 1 mM choline while reducing the rate and/or the extent of desensitization. • Type 3 compounds enhance the effect size of the current elicited by 1 mM choline. […] At low-potency concentrations of the α7 PAM compound, the agonist-induced activation, which is followed by desensitization, can still be separated from the compound-induced re-opening as an initial inward current-maximum. At higher potency concentrations of the α7 PAM compound, the re-opening occurs faster than the closure due to desensitization so that the initial current-maximum disappears.
Patch-clamp Current Recording
Patch-clamp recording from mammalian cells has provided a powerful means of assessing the function of membrane-bound proteins thought to be subunits of ligand-gated ion channels. Activation of such proteins by endogenous or exogenous ligands cause opening of a pore associated with the receptor through which ions flow down their electrochemical gradient. In the case of the hα7-wt nAChR-expressing GH4Cl recombinant cell line the preferential permeability to calcium of this receptor means that calcium flows into the cell upon activation by ACh, choline and other nicotinic ligands giving rise to a calcium current. Since this receptor rapidly desensitizes in the presence of agonist it is important an application system is used which is capable of very rapid switching of solutions (<100 ms) to prevent partial or full desensitisation of receptor responses coincident with the time of agonist application. Consequently, a second convenient technique to assess the enhancement of nicotinic efficacy is patch-clamp recording from hα7-wt nAChR-expressing GH4Cl cells coupled with a rapid-application system.
• a) Assay buffers • The external recording solution consisted of 152 mM NaCl, 5 mM KCl, 1 mM MgCl2, 1 mM Calcium, 10 mM HEPES; pH 7.3. The internal recording solution consisted of 140 mM CsCl, 10 mM HEPES, 10 mM EGTA, 1 mM MgCl2, pH 7.3. • b) Patch-clamp recording was carried out using a Patch-clamp amplifier (Multiclamp 700A, Axon Instruments, Calif., USA). hα7-wt nAChR-expressing GH4Cl cells were patch-clamp in the whole cell configuration (Hamill et al, 1981) with a borosilicate glass electrode of 1.5-3 MΩ tip resistance when filled with the internal recording solution. Recordings were made on cells with membrane resistance >500 MΩ and more preferably 1GΩ and series resistance <15 MΩ with at least 60% series resistance compensation. […]

T1 sequence (P36544 23-502): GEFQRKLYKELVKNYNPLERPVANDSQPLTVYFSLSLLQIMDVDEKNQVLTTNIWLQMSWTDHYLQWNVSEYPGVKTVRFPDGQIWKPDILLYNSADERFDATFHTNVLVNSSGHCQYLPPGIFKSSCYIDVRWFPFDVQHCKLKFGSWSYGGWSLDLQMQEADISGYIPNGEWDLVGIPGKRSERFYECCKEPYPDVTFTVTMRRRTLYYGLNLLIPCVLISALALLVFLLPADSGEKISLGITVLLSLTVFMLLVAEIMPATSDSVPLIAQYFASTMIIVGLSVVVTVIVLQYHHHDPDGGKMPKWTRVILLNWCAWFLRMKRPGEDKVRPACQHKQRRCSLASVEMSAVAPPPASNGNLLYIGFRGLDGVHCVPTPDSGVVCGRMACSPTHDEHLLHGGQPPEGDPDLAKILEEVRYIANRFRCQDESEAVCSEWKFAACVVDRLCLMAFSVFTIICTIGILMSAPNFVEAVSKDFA

In the case of CN(C)C(=O)CCc1nc(Nc2ccc3c(c2)OC(F)(F)O3)nn1-c1cccnc1Cl [E118], the EC50 [1] is reported as 692 nM and the melting point is reported as 195.8 °C.
Cc1cncc(-n2nc(Nc3ccc4c(c3)OC(F)(F)O4)nc2CCC(=O)N(C)C)c1 [E119] showed an EC50 [1] of 107 nM, a Pam type [1] of 4 and a melting point of 141.1 °C.
Compound CC[C@H](O)Cc1nc(Nc2cccc(Cl)c2)nn1-c1cc(C)nc(C)c1 [E129] has an EC50 [1] of 245 nM, a Pam type [1] of 2 and a melting point of 154.6 °C.
In the case of CCc1cc(-n2nc(Nc3ccc(F)c(F)c3)nc2C[C@H](C)O)ccn1 [E131], the EC50 [1] is reported as 1380 nM, the Pam type [1] is reported as 2 and the melting point is reported as 168 °C.
Compound CC[C@H](O)Cc1nc(Nc2ccc(F)c(F)c2)nn1-c1cc(C)nc(C)c1 [E132] has an EC50 [1] of 240 nM, a Pam type [1] of 2 and a melting point of 180.6 °C.
In the case of CCc1cc(-n2nc(Nc3cc(OC)cc(C(F)(F)F)c3)nc2C[C@H](C)O)ccn1 [E133], the EC50 [1] is reported as 363 nM, the Pam type [1] is reported as 4 and the melting point is reported as 156.2 °C.
With CC[C@@H](O)Cc1nc(Nc2ccc(F)c(F)c2)nn1-c1ccnc(C)c1 [E134] the EC50 [1] was 1050 nM, the Pam type [1] was 2 and the melting point was 175.8 °C.
COc1cc(Nc2nc(C[C@H](C)O)n(-c3ccnc(C)c3)n2)cc(C(F)(F)F)c1 [E135] gave an EC50 [1] of 550 nM, a Pam type [1] of 4 and a melting point of 196.3 °C.
CC[C@H](O)Cc1nc(Nc2cc(OC)cc(C(F)(F)F)c2)nn1-c1ccnc(C)c1 [E137, (alphaS)-alpha-Ethyl-3-[[3-methoxy-5-(trifluoromethyl)phenyl]amino]-1-(2-methyl-4-pyridinyl)-1H-1,2,4-triazole-5-ethanol] gave an EC50 [1] of 105 nM, a Pam type [1] of 4 and a melting point of 174.1 °C.
CCc1cc(-n2nc(Nc3ccc(F)c(F)c3)nc2C[C@@H](O)CC)ccn1 [E138] gave an EC50 [1] of 295 nM, a Pam type [1] of 2 and a melting point of 169.4 °C.
Compound CC[C@H](O)Cc1nc(Nc2cccc(Cl)c2)nn1-c1ccnc(C)c1 [E139] has an EC50 [1] of 324 nM, a Pam type [1] of 2 and a melting point of 126.7 °C.
CC[C@H](O)Cc1nc(Nc2ccc(F)c(F)c2)nn1-c1ccc(C)nc1 [E140] showed an EC50 [1] of 1620 nM, a Pam type [1] of 2 and a melting point of 127.5 °C.
CC[C@H](O)Cc1nc(Nc2cc(OC)cc(C(F)(F)F)c2)nn1-c1ccc(C)nc1 [E142] showed an EC50 [1] of 182 nM, a Pam type [1] of 4 and a melting point of 154.7 °C.
COc1cc(Nc2nc(C[C@H](C)O)n(-c3ccc(C)nc3)n2)cc(C(F)(F)F)c1 [E143] gave an EC50 [1] of 912 nM, a Pam type [1] of 4 and a melting point of 137.5 °C.
In the case of COc1cc(Nc2nc(C[C@H](C)O)n(-c3cccnc3)n2)cc(C(F)(F)F)c1 [E144], the EC50 [1] is reported as 2950 nM and the melting point is reported as 145.5 °C.
Work on CC[C@H](O)Cc1nc(Nc2ccc(F)c(F)c2)nn1-c1cccnc1 [E145] yielded an EC50 [1] of 2450 nM and a melting point of 144.2 °C.
With COc1ccc(-n2nc(Nc3cc(OC)cc(C(F)(F)F)c3)nc2C[C@H](C)O)cc1 [E146] the EC50 [1] was about 363 nM and the melting point was 135.4 °C.
With CC[C@H](O)Cc1nc(Nc2ccc(F)c(F)c2)nn1-c1cccc(OC)c1 [E149] the EC50 [1] was 1380 nM and the melting point was 144.1 °C.
Cc1cc(-n2nc(Nc3cccc(Cl)c3F)nc2CC(=O)NC2CC2)cc(C)n1 [E150] showed an EC50 [1] of 417 nM, a Pam type [1] of 2 and a melting point of 248.8 °C.
In the case of Cc1cc(-n2nc(Nc3cccc(Cl)c3F)nc2CC(=O)NC2CCC2)cc(C)n1 [E152], the EC50 [1] is reported as 245 nM, the Pam type [1] is reported as 2 and the melting point is reported as 234 °C.
In the case of CCNC(=O)Cc1nc(Nc2cccc(Cl)c2F)nn1-c1cc(C)nc(C)c1 [E153, 3-[(3-chloro-2-fluorophenyl)amino]-1-(2,6-dimethyl-4-pyridinyl)-N-ethyl-1H-1,2,4-triazole-5-acetamide], the EC50 [1] is reported as 562 nM, the Pam type [1] is reported as 2 and the melting point is reported as 231.4 °C.
Compound Cc1cc(-n2nc(Nc3ccc4c(c3)OC(F)(F)O4)nc2CC(=O)NC2CC2)c(C)cn1 [E160] has an EC50 [1] of 2140 nM, a Pam type [1] of 2 and a melting point of 248.3 °C.
Cc1cc(-n2nc(Nc3ccc4c(c3)OC(F)(F)O4)nc2CC(=O)NCC2CC2)c(C)cn1 [E161] gave an EC50 [1] of 1320 nM, a Pam type [1] of 2 and a melting point of 227.2 °C.
Cc1cc(-n2nc(Nc3cccc(OC(F)(F)F)c3)nc2CC(=O)NCC2CC2)cc(C)n1 [E165] gave an EC50 [1] of 209 nM, a Pam type [1] of 1 and a melting point of 247.5 °C.
CCNC(=O)Cc1nc(Nc2ccc(F)c(F)c2)nn1-c1cc(C)nc(C)c1 [E167, 3-[(3,4-difluorophenyl)amino]-1-(2,6-dimethyl-4-pyridinyl)-N-ethyl-1H-1,2,4-triazole-5-acetamide] gave an EC50 [1] of 617 nM, a Pam type [1] of 2 and a melting point of 296.8 °C.
For Cc1cc(-n2nc(Nc3ccc(F)c(F)c3)nc2CC(=O)NC2CC2)cc(C)n1 [E168], the EC50 [1] was 513 nM, the Pam type [1] was 2 and the melting point was 279.3 °C.
In the case of Cc1cc(-n2nc(Nc3cccc(C(F)(F)F)c3)nc2CC(=O)NC2CC2)cc(C)n1 [E171], the EC50 [1] is reported as 501 nM, the Pam type [1] is reported as 4 and the melting point is reported as 270 °C.
In the case of CC[C@H](O)Cc1nc(Nc2cccc(Cl)c2F)nn1-c1ccnc(C)c1 [E173], the EC50 [1] is reported as 407 nM, the Pam type [1] is reported as 2 and the melting point is reported as 127.9 °C.
Work on Cc1cc(-n2nc(Nc3cccc(C(F)(F)F)c3)nc2CC(=O)NC2CCC2)cc(C)n1 [E174] yielded an EC50 [1] of 162 nM, a Pam type [1] of 2 and a melting point of 276.3 °C.
CCNC(=O)Cc1nc(Nc2cccc(C(F)(F)F)c2)nn1-c1cc(C)nc(C)c1 [E175] showed an EC50 [1] of 550 nM, a Pam type [1] of 4 and a melting point of 283.6 °C.
For Cc1cc(-n2nc(Nc3cccc(C(F)(F)F)c3)nc2CC(=O)NCC2CC2)cc(C)n1 [E177], the EC50 [1] was 219 nM, the Pam type [1] was 2 and the melting point was 260.9 °C.
Cc1cc(-n2nc(Nc3ccc4c(c3)OC(F)(F)O4)nc2CC(=O)NC2CCC2)cc(C)n1 [E179] showed an EC50 [1] of 97.7 nM, a Pam type [1] of 1 and a melting point of 291.3 °C.
Work on Cc1cc(-n2nc(Nc3ccc4c(c3)OC(F)(F)O4)nc2CC(=O)NC2CC2)cc(C)n1 [E180, N-cyclopropyl-3-[(2,2-difluoro-1,3-benzodioxol-5-yl)amino]-1-(2,6-dimethyl-4-pyridinyl)-1H-1,2,4-triazole-5-acetamide] yielded an EC50 [1] of 302 nM, a Pam type [1] of 2 and a melting point of 292.6 °C.
Work on CCNC(=O)Cc1nc(Nc2cccc(OC(F)(F)F)c2)nn1-c1cc(C)nc(C)c1 [E181] yielded an EC50 [1] of 513 nM, a Pam type [1] of 2 and a melting point of 277.5 °C.
With Cc1cc(-n2nc(Nc3cccc(OC(F)(F)F)c3)nc2CC(=O)NC2CC2)cc(C)n1 [E182, N-cyclopropyl-1-(2,6-dimethyl-4-pyridinyl)-3-[[3-(trifluoromethoxy)phenyl]amino]-1H-1,2,4-triazole-5-acetamide] the EC50 [1] was 331 nM, the Pam type [1] was 2 and the melting point was 282.2 °C.
In the case of Cc1cc(-n2nc(Nc3cccc(OC(F)(F)F)c3)nc2CC(=O)NC2CCC2)cc(C)n1 [E184], the EC50 [1] is reported as 257 nM, the Pam type [1] is reported as 2 and the melting point is reported as 264.4 °C.
With Cc1cc(-n2nc(Nc3ccc(F)c(F)c3)nc2CC(=O)NCC2CC2)cc(C)n1 [E185] the EC50 [1] was 468 nM, the Pam type [1] was 2 and the melting point was 278.7 °C.
